Test results from patent US20080319001A1, “Cancer Treatment Using Specific 3,6,9-Substituted Acridines” (priority 2005, published 2008).
Like-named read-outs stand apart in the source and are kept apart here.

How the values were obtained:
[1] = test system: G-quadruplex DNA (F21T oligonucleotide); assay: FRET DNA melting assay; assay type: binding; details: [conc]ΔTm=20 value
Experimental: The ability of the compounds to stabilise G-quadruplex DNA was investigated using a fluorescence resonance energy transfer (FRET) assay modified to be used as a high-throughput screen in a 96-well format. The labelled oligonucleotide F21T (5′-FAM-dGGG(TTAGGG)-3-TAMRA-3′) used as the FRET probe was diluted from stock to the correct concentration (400 nM) in a 50 mM potassium cacodylate buffer (pH 7.4) and then annealed by heating to 85° C. for 10 min., followed by cooling to room temperature in the heating block.
Compounds were stored as 10 mM stock solutions in DMSO; final solutions (at 2× concentration) were prepared using water or 1M HCl in the initial 1:10 dilution, after which 50 mM potassium cacodylate buffer (pH 7.4) was used in all subsequent steps. 96-well plates (MJ Research, Waltham, Mass.) were prepared by aliquoting 50 μl of the annealed DNA to each well, followed by […] of the compound solutions. Measurements were made on a DNA Engine Opticon (MJ Research) with excitation at 450-495 nm and detection at 515-545 nm. Fluorescence readings were taken at intervals of 0.5° C. over the range 30-100° C., with a constant temperature being maintained for 30 seconds prior to each reading to ensure a stable value. Final analysis of the data was carried out using a script written in the program Origin 7.0 (OriginLab Corp., Northampton, Mass.). […]

[2] = Cytotoxicity / growth inhibition, A549; assay type: cell-based; details: human, A549 cells; read-out: Cytotoxic IC50 vs. A549
Metabolic stability, HLM = assay type: in vitro ADME, human
[3] = Cytotoxicity / growth inhibition, DU145; assay type: cell-based; details: human, DU145 cells; read-out: Cytotoxic IC50 vs. DU145
Thermodynamic solubility = assay type: physicochemical; details: for solubility at 24 h: thermodynamic from solid, read-out: Solubility Free Base equivalent
Experimental: Thermodynamic solubility values were determined in each of 0.1M HCl, Deionised water, pH6.8 phosphate buffer, 0.9% saline and 5% dextrose.
1.25-1.5 mg of sample was weighed out into a 1 ml HPLC tube to which 0.25 ml of the dissolution media was added to allow for determination of solubility up to 5 mg/ml. This suspension was then shaken for 24 hours before measurement of the pH, filtration (through a 96 well plate with a glass fibre filter membrane), dilution and analysis of the neat and diluted solutions at different injection volumes on a generic 5 minute HPLC method.
A reference solution was prepared in DMSO for comparison and calculation of the test solubilities. XRPD patterns were measured of remaining solids from experiments where complete dissolution was not achieved.
It is believed the large additional peak noted in the HPLC chromatograms is due to a rotamer of the parent compound. This should therefore be included in the overall peak area assessment. Therefore, the largest and second largest peaks noted in the reference solution were added together as were the same peaks (i.e. the same retention times) in the test sample injections.

[4] = test system: telomerase (extracts from A2780 human ovarian carcinoma cells); assay: Modified telomeric repeat amplification protocol (TRAP) assay, cell-free; assay type: biochemical
Experimental: The ability of compounds to inhibit telomerase in a cell-free assay was assessed with a modified TRAP assay using extracts from exponentially growing A2780 human ovarian carcinoma cells. The TRAP assay was performed in 2 steps: • (a) telomerase-mediated extension of the forward primer (TS: 5′-AATCCGTCGAGCAGAGTT, Oswel Ltd., Southampton, UK) contained in a 40 μL reaction mix comprising TRAP buffer (20 mM Tris-HCl (pH 8.3), 68 mM KCl, 1.5 mM MgCl2, 1 mM EGTA, 0.05% v/v Tween 20), 0.05 μg bovine serum albumin, 50 μM of each deoxynucleotide triphosphate, 0.1 μg TS primer, and 3 μCi of [α-P]dCTP (Amersham plc, UK)Protein (40 ng or 20 ng) was then incubated with the reaction mix and agent (acid addition and quaternary dimethiodide salts) at final concentrations of up to 50 μM for 20 min at 25° C. A lysis buffer (no protein) control, heat-inactivated protein control, and 50% protein (20 ng or 10 ng) control were included in each assay; and • (b) while heating at 80° C. in a PCR block of a thermal cycler (Hybaid, UK) for 5 min to inactivate telomerase activity, 0.1 μg of reverse CX primer (3′-[…]-5′) and 2 Units of Taq DNA polymerase (“red hot”, Advanced Biotechnologies) were added. A 3-step PCR was then performed: 94° C. for 30 s, 50° C. for 30 s, and 72° C. for 1 min for 31 cycles. Telomerase-extended PCR products in the presence or absence of compounds were then determined either by electrophoretic separation using 8% w/w acrylamide denaturing gels and analysis by phosphorimaging or autoradiography, or by harvesting on Whatman filters (25 mm glass microfibre) and analysis by liquid scintillation counting.

[5] = 0.9% saline, saline or isotonic, 0.9% NaCl, 24 hours
[6] = aqueous buffer, pH 6.8 phosphate buffer, 24 hours
[7] = deionised water, Water, 24 hours
[8] = saline or isotonic, 5% Dextrose, 24 hours
[9] = simulated gastric fluid, 0.1M HCl, 24 hours
[10] = Table 3, unit inferred, read-out: TRAP EC50
[11] = Table 4, read-out: Telomerase EC50

Compound | FRET [1] [µM] | IC50 at 96 h [2] [nM] | HLM (t = 45) (Metabolic stability, HLM) | HLM (t = 90) (Metabolic stability, HLM) | IC50 at 96 h [3] [µM] | PH of unfiltered Saturated solution (Thermodynamic solubility; 0.1M HCl) | PH of unfiltered Saturated solution (Thermodynamic solubility; 0.9% NaCl) | solubility at 24 h (Thermodynamic solubility; [5]) [µg/mL] | PH of unfiltered Saturated solution (Thermodynamic solubility; 5% Dextrose) | PH of unfiltered Saturated solution (Thermodynamic solubility; Water) | solubility at 24 h (Thermodynamic solubility; [6]) [µg/mL] | solubility at 24 h (Thermodynamic solubility; [7]) [µg/mL] | PH of unfiltered Saturated solution (Thermodynamic solubility; pH 6.8 phosphate buffer) | solubility at 24 h (Thermodynamic solubility; [8]) [µg/mL] | solubility at 24 h (Thermodynamic solubility; [9]) [µg/mL] | EC50 [4, 10] [nM] | EC50 [4, 11] [nM] | Solubility Free Base equivalent (Thermodynamic solubility; Water, 24 hours) [µg/mL]
O=C(CCN1CCCC1)Nc1ccc2c(NCc3ccc(F)c(F)c3)c3ccc(NC(=O)CCN4CCCC4)cc3nc2c1 [BSG17, N-(9-(3,4-Difluoro-benzylamino)-6-(3-pyrolidin-1-yl-propionamide)-acridin-3-yl)-3-pyrrolidin-1-yl-propionamide] | 0.46 | 2120 | 3.1 | 12.4 | 9.75 | 1.12 | 8.81 | < 1 | 7.96 | 8.34 | 1950 | 20 | 7.49 | 300 | > 5000 | 32 | 162 | –
CN(C)c1ccc(Nc2c3ccc(NC(=O)CCN4CCCC4)cc3nc3cc(NC(=O)CCN4CCCC4)ccc23)cc1 [BSG01] | 0.72 | 2420 | 6.1 | 11.2 | 2.3 | 1.25 | 9.80 | < 1 | 8.26 | 8.66 | 2630 | < 1 | 7.45 | 220 | > 5000 | 115 | 115 | <1
